From patent US20020025918A1, “Methods of using helical peptides in plants” (priority 1987, published 2002)
≈ marks a conversion by molar mass, not a printed value. Residues, ends and D or L forms follow the SMILES beside them.

Experiments:
Staph aureus = experiment: MIC/MBC, fresh isolates; assay type: cell-based; conditions: fresh isolate Staph aureus
Text: (§1) The procedure of example 2 was followed using a variety of freshly isolated bacterial samples.

Staph Coag neg = experiment: MIC/MBC, fresh isolates; assay type: cell-based; conditions: fresh isolate Staph Coag neg
Text: as §1

Pseudomonas aeruginosa-1 = experiment: MIC/MBC, fresh isolates; assay type: cell-based; conditions: fresh isolate Pseudomonas aeruginosa-1
Text: as §1

Morganella morganil = experiment: MIC/MBC, fresh isolates; assay type: cell-based; conditions: fresh isolate Morganella morganil
Text: as §1

Klebsiella pheumoniae = experiment: MIC/MBC, fresh isolates; assay type: cell-based; conditions: fresh isolate Klebsiella pheumoniae
Text: as §1

Citrobacter Freundii = experiment: MIC/MBC, fresh isolates; assay type: cell-based; conditions: fresh isolate Citrobacter Freundii
Text: as §1

Klebsiella pheumoniae-2 = experiment: MIC/MBC, fresh isolates; assay type: cell-based; conditions: fresh isolate Klebsiella pheumoniae-2
Text: as §1

Enterobacteria Cloacae = experiment: MIC/MBC, fresh isolates; assay type: cell-based; conditions: fresh isolate Enterobacteria Cloacae
Text: as §1

Enterococcus-3 = experiment: MIC/MBC, fresh isolates; assay type: cell-based; conditions: fresh isolate Enterococcus-3
Text: as §1

Enterococcus-1 = experiment: MIC/MBC, fresh isolates; assay type: cell-based; conditions: fresh isolate Enterococcus-1
Text: as §1

Staph auerus-MR-1 = experiment: MIC/MBC, fresh isolates; assay type: cell-based; conditions: fresh isolate Staph auerus-MR-1
Text: as §1

Acinetobacter Cal Anit = experiment: MIC/MBC, fresh isolates; assay type: cell-based; conditions: fresh isolate Acinetobacter Cal Anit
Text: as §1

Enterococcus-2 = experiment: MIC/MBC, fresh isolates; assay type: cell-based; conditions: fresh isolate Enterococcus-2
Text: as §1

Pseudomonas aeruginosa-3 = experiment: MIC/MBC, fresh isolates; assay type: cell-based; conditions: fresh isolate Pseudomonas aeruginosa-3
Text: as §1

Citrobacter Diversus = experiment: MIC/MBC, fresh isolates; assay type: cell-based; conditions: fresh isolate Citrobacter Diversus
Text: as §1

Serratia Marcescens = experiment: MIC/MBC, fresh isolates; assay type: cell-based; conditions: fresh isolate Serratia Marcescens
Text: as §1

Pseudomonas aeruginosa-2 = experiment: MIC/MBC, fresh isolates; assay type: cell-based; conditions: fresh isolate Pseudomonas aeruginosa-2
Text: as §1

Staph aureus-MR-2 = experiment: MIC/MBC, fresh isolates; assay type: cell-based; conditions: fresh isolate Staph aureus-MR-2
Text: as §1

Eschera Coli = experiment: MIC/MBC, fresh isolates; assay type: cell-based; conditions: fresh isolate Eschera Coli
Text: as §1

[1] = system: Human mononuclear leukocytes; experiment: 3H-thymidine uptake in WBC (proliferation); assay type: cell-based
Protocol: Human mononuclear leukocytes were isolated from whole blood in the following manner. Blood was collected in vacutainer tubes containing EDTA, and was then diluted with an equal valume of calcium and magnesium-free PBS and layered over Histopaque resin (GIBCO). The tubes were centrifuged for 30 minutes at 25° C. and 450× g. The plasma and platelets above the banded layer of cells in the resulting gradient were removed and discarded. The banded white blood cells were removed to fresh test tubes, washed 3 times with PBS, and resuspended in RPMI medium containing 10% fetal bovine serum (FBS), mercaptoethanol, and penicillin and streptomycin as antibiotics. The cells were then counted and resuspended to a final concentration of 3×10^6 cells/ml.
To each well of a 96 well flat-bottomed microtiter plate was aded 100 μl of cells (3×10^5 cells). Treatment groups were set in quadruplicate samples. The appropriate concentration of test peptide and/or the mitogen hytohemaglutinate (PHA), was added in a total volume of 100 μl of medium to the test wells. The plates were then incubated at 37° C. and 5% CO2 for a duration of 72 hours. At the end of the incubation period, 1 μCi of 3H-thymidine in 1 μl TRIS-HCI, PH8 was added to each well, and the plates incubated an additional 18 hours.
Cellular DNA was harvested onto glass fiber filters using a semi-automatic cell harvester. The glass filters were then placed into vials containing scintillation fluid, and the samples were counted in a scintillation counter. The uptake of 3H-thymidine is an indiator of cell proliferation, thus the higher the number of counts in the sample, the greater the proliferative activity of the cells. The results in Table XI indicate that low dose of the synthetic peptides of this invention stimulate cell growth.

[2] = Lytic activity (general statement)
S. aureus = experiment: MBC and MIC susceptibility test; assay type: cell-based; conditions: S. auerus (+)
E. coli = experiment: MBC and MIC susceptibility test; assay type: cell-based
P. aeruginosa = experiment: MBC and MIC susceptibility test; assay type: cell-based; conditions: P. aeruginosa (−)
lymphocytes = assay type: cell-based, human

Compound `CC(C)C[C@H](NC(=O)[C@H](CCCCN)NC(=O)[C@H](CCCCN)NC(=O)[C@H](C)NC(=O)[C@H](CC(C)C)NC(=O)[C@H](CCCCN)NC(=O)[C@H](C)NC(=O)[C@H](CC(C)C)NC(=O)[C@H](CCCCN)NC(=O)[C@H](CCCCN)NC(=O)[C@H](C)NC(=O)[C@H](CC(C)C)NC(=O)[C@H](CCCCN)NC(=O)[C@H](CCCCN)NC(=O)[C@H](CC(C)C)NC(=O)[C@H](CCCCN)NC(=O)[C@H](CCCCN)NC(=O)[C@H](C)NC(=O)[C@H](CC(C)C)NC(=O)[C@H](CCCCN)NC(=O)[C@H](CCCCN)NC(=O)[C@H](C)NC(=O)[C@@H](N)Cc1ccccc1)C(N)=O` [Anubis-2] (H-FAKKLAKKLKKLAKKLAKLAKKL-NH2) has an MBC (Staph aureus) of 51.2 µM (≈ 134 µg/mL), an MIC (Staph aureus) of 6.4 µM (≈ 16.7 µg/mL) and an MBC (Staph Coag neg) of 3.2 µM (≈ 8.35 µg/mL). It also gave an MIC (Staph Coag neg) of 1.6 µM (≈ 4.17 µg/mL), an MBC (Pseudomonas aeruginosa-1) of 25.6 µM (≈ 66.8 µg/mL) and an MIC (Pseudomonas aeruginosa-1) of 6.4 µM (≈ 16.7 µg/mL). For the same compound, the MIC (Morganella morganil) was 51.2 µM (≈ 134 µg/mL), the MBC (Klebsiella pheumoniae) was 6.4 µM (≈ 16.7 µg/mL) and the MIC (Klebsiella pheumoniae) was 3.2 µM (≈ 8.35 µg/mL). The MBC (Citrobacter Freundii) was 6.4 µM (≈ 16.7 µg/mL), the MIC (Citrobacter Freundii) was 3.2 µM (≈ 8.35 µg/mL) and the MBC (Klebsiella pheumoniae-2) was 25.6 µM (≈ 66.8 µg/mL). The MIC (Klebsiella pheumoniae-2) was 6.4 µM (≈ 16.7 µg/mL), the MBC (Enterobacteria Cloacae) was 12.8 µM (≈ 33.4 µg/mL) and the MIC (Enterobacteria Cloacae) was 6.4 µM (≈ 16.7 µg/mL). It also gave an MIC (Enterococcus-3) of 51.2 µM (≈ 134 µg/mL), an MBC (Enterococcus-1) of 3.2 µM (≈ 8.35 µg/mL) and an MIC (Enterococcus-1) of 1.6 µM (≈ 4.17 µg/mL). The MIC (Staph auerus-MR-1) was 51.2 µM (≈ 134 µg/mL), the MBC (Acinetobacter Cal Anit) was 3.2 µM (≈ 8.35 µg/mL) and the MIC (Acinetobacter Cal Anit) was 3.2 µM (≈ 8.35 µg/mL). For the same compound, the MIC (Enterococcus-2) was 51.2 µM (≈ 134 µg/mL), the MBC (Pseudomonas aeruginosa-3) was 51.2 µM (≈ 134 µg/mL) and the MIC (Pseudomonas aeruginosa-3) was 6.4 µM (≈ 16.7 µg/mL). The MBC (Citrobacter Diversus) was 6.4 µM (≈ 16.7 µg/mL), the MIC (Citrobacter Diversus) was 3.2 µM (≈ 8.35 µg/mL) and the MIC (Serratia Marcescens) was 51.2 µM (≈ 134 µg/mL). The MBC (Pseudomonas aeruginosa-2) was 6.4 µM (≈ 16.7 µg/mL), the MIC (Pseudomonas aeruginosa-2) was 3.2 µM (≈ 8.35 µg/mL) and the MBC (Staph aureus-MR-2) was 25.6 µM (≈ 66.8 µg/mL). It also gave an MIC (Staph aureus-MR-2) of 12.8 µM (≈ 33.4 µg/mL), an MBC (Eschera Coli) of 12.8 µM (≈ 33.4 µg/mL) and an MIC (Eschera Coli) of 6.4 µM (≈ 16.7 µg/mL). The “3H-Thymidine Uptake in WBC, % of Control” value ([1]; peptide 10 μM, PHA 0 mg) was 149%, the “3H-Thymidine Uptake in WBC, % of Control” value ([1]; peptide 10 μM, PHA 0.5 mg) was 290% and the “3H-Thymidine Uptake in WBC, % of Control” value ([1]; peptide 10 μM, PHA 5.0 mg) was 120%. The “3H-Thymidine Uptake in WBC, % of Control” value ([1]; peptide 25 μM, PHA 0 mg) was 46%, the “3H-Thymidine Uptake in WBC, % of Control” value ([1]; peptide 25 μM, PHA 0.5 mg) was 393% and the “3H-Thymidine Uptake in WBC, % of Control” value ([1]; peptide 25 μM, PHA 5.0 mg) was 108%. For the same compound, the “3H-Thymidine Uptake in WBC, % of Control” value ([1]; peptide 50 μM, PHA 0 mg) was 19%, the “3H-Thymidine Uptake in WBC, % of Control” value ([1]; peptide 50 μM, PHA 0.5 mg) was 4% and the “3H-Thymidine Uptake in WBC, % of Control” value ([1]; peptide 50 μM, PHA 5.0 mg) was 1%. The “3H-Thymidine Uptake in WBC, % of Control” value ([1]; peptide 100 μM, PHA 0 mg) was 26%, the “3H-Thymidine Uptake in WBC, % of Control” value ([1]; peptide 100 μM, PHA 0.5 mg) was 5% and the “3H-Thymidine Uptake in WBC, % of Control” value ([1]; peptide 100 μM, PHA 5.0 mg) was 0%.

In the case of `CC[C@H](C)[C@H](NC(=O)[C@H](CC(N)=O)NC(=O)[C@H](CCCNC(=N)N)NC(=O)CNC(=O)[C@H](CCSC)NC(=O)[C@H](CCCCN)NC(=O)[C@H](CCC(=O)O)NC(=O)[C@@H](NC(=O)[C@H](CCCCN)NC(=O)[C@H](CC(C)C)NC(=O)[C@H](Cc1ccccc1)NC(=O)[C@@H](NC(=O)[C@H](CCCCN)NC(=O)[C@H](CCC(=O)O)NC(=O)[C@H](CCCCN)NC(=O)[C@@H]1CCCN1C(=O)[C@@H](N)CCSC)C(C)C)[C@@H](C)CC)C(=O)N[C@@H](CCCNC(=N)N)C(=O)N[C@@H](CC(N)=O)C(N)=O` [Vishnu-3] (H-MPKEKVFLKIEKMGRNIRN-NH2), the “lytic activity (in words)” value [2] is reported as “devoid of lytic activity”, the “antibacterial result of treatment (Table I; MBC)” value (“antibacterial result of treatment” below) (S. aureus) is reported as over 64 µM and the “antibacterial result of treatment” value (E. coli) is reported as over 64 µM. For the same compound, the “antibacterial result of treatment” value (P. aeruginosa) was over 64 µM and the “stimulation of cell proliferation (in words)” value (lymphocytes) was “potent stimulator of cell proliferation”.
